Measured values from patent US8853392B2, “Benzamide mGluR5 positive allosteric modulators and methods of making and using same” (Vanderbilt University, priority 2007, dated 2014).
Entries after “also recorded” stand apart in the source; their conditions may differ. Where two headings read alike, the source gives them in different places.

How the values were obtained:
[1] = system: prepulse inhibition (PPI); assay: reversal of amphetamine-induced prepulse inhibition (PPI) of startle; type: in vivo, rats; conditions: FIG. 15, 16; four prepulse intensities above background
From the text: Schizophrenic patients show decreased measures of sensorimotor gating, such as prepulse inhibition (PPI) of startle, and preclinical models of PPI in rats are routinely used to predict antipsychotic efficacy. In fact, PPI can be measured in humans and rats employing identical stimulus parameters yielding similar responses (Braff, D. L.; Geyer, M. A.; Swerdlow, N. R. ‘Human studies of prepulse inhibition of startle: normal subjects, patient groups, and pharmacological studies.’ Psychopharmacology 2001, 156(2-3), 234-258; Braff, D. L.; Geyer, M. A. ‘Sensorimotor gating and schizophrenia. Human and animal model studies.’ Archives of general psychiatry 1990, 47(2), 181-8; Braff, D. L.; Geyer, M. A.; Swerdlow, N. R. ‘Human studies of prepulse inhibition of startle: normal subjects, patient groups, and pharmacological studies.’ Psychopharmacology 2001, 156(2-3), 234-258; Weiss, I. C.; Feldon, J. ‘Environmental animal models for sensor motor gating deficiencies in schizophrenia: a review.’ Psychopharmacology 2001, 156(2-3), 305-326; Thomsen, M.; Woertwein, G.; Fink-Jensen, A.; Woldbye, D. P. D.; Wess, J.; Caine, S. B. ‘Decreased prepulse inhibition and increased sensitivity to muscarinic, but not dopaminergic drugs in M5 muscarinic acetylcholine receptor knockout mice.’ Psychopharmacology 2007, 192(1), 97-110.). […]

[2] = system: hippocampal long term potentiation (LTP); assay: hippocampal long term potentiation (LTP); type: cell-based; conditions: after applying a stimulus to the synapse, FIG. 17
From the text: (§1) mGluR5 potentiation has also been linked to improvement of cognition (Kinney, G. G.; O'Brien, Lemaire, W.; Burno, M.' Bickel, D. J.; Clements, M. K.; Wisnoski, D. D.; Lindsley, C. W.; Tiller, P. R.; Smith, S.; Jacobson, M. A.; Sur, C.; Duggan, M. E.; Pettibone, D. J.; Williams, Jr., D. W. ‘A novel selective allosteric modulator of metabotropic glutamate receptor subtype 5 (mGluR5) has an antipsychotic profile in rat behavioral models’ J. Pharmacol. Exp. Therapeut. 2005, 313(1), 199; Lindsley, C. W.; Wisnoski, D. D.; Leister, W. H.; O'Brien, J. A.; Lemiare, W.; Williams, Jr., D. L.; Burno, M.; Sur, C.; Kinney, G. G.; Pettibone, D. J.; iller, P. R.; Smith, S.; Duggan, M. E.; Hartman, G. D.; Conn, P. J.; Huff, J. R. ‘Discovery of positive allosteric modulators for the metabotropic glutamate receptor subtype from a series of N-(1,3-Diphenyl-1H-pyrazol-5-yl)benzamides that potentiate receptor function in vivo’ J. Med. Chem. 2004, 47, 5825; Epping-Jordan M. P., Nayak, S., Derouet, F., Dominguez, H., Bessis A. S., Le Poul E., Ludwig B. L. Mutel V., Poli S. M. and Rocher J. P. In Vivo Characterization of mGluR5 Positive Allosteric Modulators as Novel Treatments for Schizophrenia and Cognitive Dysfunction Neuropharmacology 2005, 49, 243.). […]

[3] = system: Novel Object Recognition (NOR); assay: Novel Object Recognition (NOR); type: in vivo; conditions: FIG. 11
From the text: as §1

[4] = system: amphetamine-induced hyperlocomotion; assay: reversal of amphetamine-induced hyperlocomotion; type: in vivo, male Sprague-Dawley rats; conditions: rats, i.p., FIG. 8-10, 13, 14
Method: For example, compounds of the present invention reverse amphetamine-induced hyperlocomotion in male Sprague-Dawley rats at doses ranging from 1 to 100 mg/kg i.p. Data for three example compounds follow:
Locomotor activity can be assessed as mean distance traveled (cm) in standard 16×16 photocell testing chambers measuring 43.2 cm (L)×43.2 cm (W)×30.5 cm (H) (Med Associates, St. Albans, Vt.). Animals can be habituated to individual activity chambers for at least 60 min prior to drug administration. Following administration of appropriate drugs or vehicle, activity can be recorded for a 3 hr time period. Data can be expressed as the mean (±SEM) distance traveled recorded in 10 min intervals over the test period. The data can be analyzed using repeated measures analysis of variance (ANOVA) followed by post-hoc testing using Tukey's HSD test, when appropriate. A difference can be considered significant when p≦0.05.

rat mGluR5 = molecular target: T1, rat mGluR5 (Rattus norvegicus, UniProt P31424); assay: potentiation of mGluR5 response to glutamate, Ca2+ fluorescence (FDSS) in HEK cells transfected with rat mGluR5; type: cell-based
T1 construct: expressed in transfected cells; host or cells: human embryonic kidney (HEK) cells
T1 sequence (P31424 21-1203): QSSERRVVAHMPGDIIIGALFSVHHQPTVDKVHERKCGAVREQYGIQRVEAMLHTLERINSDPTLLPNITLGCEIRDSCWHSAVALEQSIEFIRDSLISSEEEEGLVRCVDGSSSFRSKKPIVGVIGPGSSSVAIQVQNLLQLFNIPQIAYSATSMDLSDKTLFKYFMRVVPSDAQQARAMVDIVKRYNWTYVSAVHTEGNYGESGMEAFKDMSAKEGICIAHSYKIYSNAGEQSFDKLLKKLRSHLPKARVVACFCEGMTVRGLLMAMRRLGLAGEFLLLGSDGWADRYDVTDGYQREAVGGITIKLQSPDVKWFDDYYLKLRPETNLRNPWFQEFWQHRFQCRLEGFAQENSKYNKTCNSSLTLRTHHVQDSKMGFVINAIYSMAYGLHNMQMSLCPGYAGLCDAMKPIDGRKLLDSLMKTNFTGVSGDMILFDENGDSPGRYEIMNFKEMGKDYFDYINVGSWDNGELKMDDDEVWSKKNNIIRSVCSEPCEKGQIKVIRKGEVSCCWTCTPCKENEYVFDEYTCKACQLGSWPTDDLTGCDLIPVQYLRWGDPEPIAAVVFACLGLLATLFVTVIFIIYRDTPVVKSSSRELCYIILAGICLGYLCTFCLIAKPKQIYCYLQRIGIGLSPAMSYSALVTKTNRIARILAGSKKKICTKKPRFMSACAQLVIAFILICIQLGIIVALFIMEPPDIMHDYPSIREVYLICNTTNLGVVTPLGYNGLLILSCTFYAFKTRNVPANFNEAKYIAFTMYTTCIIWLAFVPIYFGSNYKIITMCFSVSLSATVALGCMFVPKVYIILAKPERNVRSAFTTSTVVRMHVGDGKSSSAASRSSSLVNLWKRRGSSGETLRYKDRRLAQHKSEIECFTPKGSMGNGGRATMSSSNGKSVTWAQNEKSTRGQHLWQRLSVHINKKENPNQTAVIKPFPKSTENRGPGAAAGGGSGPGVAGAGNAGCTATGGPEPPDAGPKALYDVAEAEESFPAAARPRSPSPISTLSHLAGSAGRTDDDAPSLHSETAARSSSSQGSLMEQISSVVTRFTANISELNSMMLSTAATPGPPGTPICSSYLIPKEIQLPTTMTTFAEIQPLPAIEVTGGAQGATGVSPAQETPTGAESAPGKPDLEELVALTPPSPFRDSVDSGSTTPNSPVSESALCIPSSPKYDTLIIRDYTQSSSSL
How it was run: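 HEK cells expressing rat mGluR5, loaded with 2 μM fluo-4 AM; buffer HBSS, 20 mM HEPES, 2.5 mM probenecid, pH 7.4, 0.1% DMSO final. Compound added 5 min before glutamate, typically at EC20, with Ca2+ fluorescence read over 1 min and normalized to maximal agonist response. Potentiator EC50 from curve fitting; agonist curve shifts measured at fixed compound concentrations.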

[5] = Table 1, EC50 for potentiating the mGluR5 receptor, unit inferred, read-out: EC50

O=C(c1ccc(F)cc1)N1CCC[C@H](c2nc(-c3ccc(F)cc3)no2)C1 [ADX47273]
reversal of amphetamine-induced prepulse inhibition (PPI) [1]: affords similar results; also recorded: reversal of amphetamine-induced prepulse inhibition (PPI)
increase in strength of synaptic connections (hippocampal LTP) [2]: induced a robust increase in synaptic connections
improvement in Novel Object Recognition (NOR) [3]: robust and significant improvement in NOR; also recorded: cognitive improvement
reversal of amphetamine-induced hyperlocomotion [4]: afforded similar results; also recorded: reversal of amphetamine-induced hyperlocomotion

CCCC1(O)CCN(C(=O)c2ccc(C#Cc3ccccc3)cc2)CC1 [Compound VU60/C109B2, (4-hydroxy-4-propylpiperidin-1-yl)(4-(phenylethynyl)phenyl)methanone]
Emax (rat mGluR5; HEK293, read-out: % Glu Max): 90%
Emax (rat mGluR5; HEK293, read-out: % Glu Max, maximum extent of potentiation, normalized to maximal response to glutamate, SAR tables): 90.1%
EC50 (rat mGluR5; [5]): 1610 nM
EC50 (rat mGluR5; in vitro potency, read-out: In vitro): 1250 nM
reversal of amphetamine-induced hyperlocomotion [4]: efficacy in reversing amphetamine-induced hyperlocomotion
reversal of amphetamine-induced hyperlocomotion ([4]; listed as VU60): in vivo efficacy

O=C(Nc1cc(-c2ccccc2)nn1-c1ccccc1)c1ccc([N+](=O)[O-])cc1 [VU29]
increase in strength of synaptic connections (hippocampal LTP) [2]: induced a robust increase in synaptic connections

(4-hydroxypiperidin-1-yl)(4-(phenylethynyl)phenyl)methanone [Compound VU13]
EC50 (rat mGluR5; [5]): 28.3 nM
reversal of amphetamine-induced hyperlocomotion ([4]; listed as VU000013): affords similar results
reversal of amphetamine-induced hyperlocomotion ([4]; listed as VU00013): reversal of amphetamine-induced hyperlocomotion
